PMC10067601, “Identification of a peptide ligand for human ALDH3A1 through peptide phage display: Prediction and characterization of protein interaction sites and inhibition of ALDH3A1 enzymatic activity” (Frontiers in Molecular Biosciences, 2023)
“Also recorded” adds a separate entry of the source.

Biological target: T1, human recombinant ALDH3A1 (Homo sapiens, UniProt P30838)
T1 construct: 6xHis (C); made in house; host or cells: E. coli, with chaperone co-expression (pG-KJE8 plasmid)
T1 sequence (P30838 1-453): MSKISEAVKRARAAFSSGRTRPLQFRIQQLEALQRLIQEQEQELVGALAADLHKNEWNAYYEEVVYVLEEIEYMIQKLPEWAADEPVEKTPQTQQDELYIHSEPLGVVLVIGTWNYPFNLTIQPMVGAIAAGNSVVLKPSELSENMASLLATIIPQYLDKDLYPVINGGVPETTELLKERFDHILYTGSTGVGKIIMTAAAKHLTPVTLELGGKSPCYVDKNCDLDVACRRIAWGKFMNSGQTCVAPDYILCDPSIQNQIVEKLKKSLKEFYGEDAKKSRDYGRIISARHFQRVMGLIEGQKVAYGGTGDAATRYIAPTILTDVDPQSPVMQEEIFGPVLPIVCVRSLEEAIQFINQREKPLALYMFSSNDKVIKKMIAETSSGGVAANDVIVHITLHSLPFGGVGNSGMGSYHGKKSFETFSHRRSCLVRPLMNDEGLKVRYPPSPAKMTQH
Test: Peptide ELISA, P1 coated, serially diluted ALDH3A1
Assay type: binding
Method: An ELISA with the synthetic peptide P1 was performed as described ([Thermo Scientific, 2010]). P1 (50 μg/mL) diluted in Coating Buffer (0.2 M sodium carbonate/bicarbonate, pH 9.4) was coated overnight at 4°C under agitation. After three washes with TBST (25 mM Tris, 0.15 M sodium chloride, pH 7.2 containing 0.1% Tween 20), the wells were blocked with 300 μL per well with Blocking Buffer (TBST containing 4% w/v BSA) overnight at 4°C under agitation. After another three washes with TBST, 100 μL of 2-fold serial dilutions of ALDH3A1 in Blocking Buffer were added in each well and the plate was incubated for 1 h at RT under gentle agitation. Following four washes with TBST, 100 μL of rabbit anti-ALDH3A1 antibody, diluted 1:1,000 in Blocking Buffer, were added and the plate was incubated for 2 h at RT under gentle agitation. After the plate was washed 4 times with TBST, it was incubated with 100 μL of anti-rabbit IgG horseradish-peroxidase conjugated and diluted 1:5,000 in Blocking Buffer, for 2 h at RT. Then, the plate was washed 6 times with TBST, and 100 μL of ABTS [2,2′-azino-bis(3-ethylbenzothiazoline-6-sulfonic acid)] solution (ready-to-use) were added. After 1 h of incubation in darkness at RT under agitation, the plate was measured at 405 nm, with wavelength correction at 650 nm, using an ELISA plate reader (EnSpire Multimode Plate Reader, Perkin Elmer, Waltham, MA, United States). During wash steps, liquids were dispersed in the sink, the plate was tapped vigorously on a paper towel, refilled with Wash Buffer, and incubated for 5 min at RT under agitation.
Next, peptide ELISA was performed to test whether the synthetic peptide P1 interacts with the hALDH3A1 protein. Specifically, P1 was coated in abundance in a 96-well plate and subsequently, hALDH3A1 was added to each well in serial dilutions. For detecting the putative peptide/ALDH3A1 interaction a rabbit anti-ALDH3A1 antibody along with a secondary horseradish peroxidase-conjugated anti-rabbit antibody were used in a sandwich ELISA. In each step, the excessive, unbound ALDH3A1 or antibody was removed through repetitive washes, while a ready-to-use ABTS solution was used as a colorimetric substrate for detecting the presence of horseradish peroxidase activity.

[1] = X is log(dilution of ALDH3A1), P1 50 μg/ml coated

## WPTYVSPFRSPP [P1, …, prevailing 12-mer phage display peptide, synthesised by Genecust]
4PL fit, P1 50 μg/ml coated
  Bottom, 95% CI (profile likelihood): -0,6000 to 0,3171
  HillSlope, 95% CI (profile likelihood): 0,7500 to 2,101
  LogIC50, 95% CI (profile likelihood): -2,813 to -1,638
  R squared (4PL fit): 0.9777
  Top, 95% CI (profile likelihood): 0,5633 to 0,6007
P1 50 μg/mL coated, 2-fold serial dilutions of ALDH3A1, 405 nm-650 nm
  Binding of P1 to ALDH3A1: ALDH3A1 dose-dependent increase in absorbance was observed, indicating the specific binding of P1 to ALDH3A1; also recorded: confirmed the interaction of ALDH3A1 with the synthetic peptide P1 in a concentration-dependent manner
Sigmoidal, 4PL, X is log(dilution of ALDH3A1), P1 50 μg/ml coated
  Bottom (4PL fit): 0.2386
Sigmoidal, 4PL, X is log(dilution of ALDH3A1), P1 50 μg/ml coated, OD 405nm - 650nm
  Top (4PL fit): 0.5773
[1]
  HillSlope (4PL fit): 1.408
  LogIC50 (4PL fit): -1.813
  Span (4PL fit): 0.3387
